In patent US7122549B2, “Saframycins, analogues and uses thereof” (President and Fellows of Harvard College, priority 2000, dated 2006) one finds IC50 data, which are given here for 50 compounds.

Experiment [1] concerns A-549 lung carcinoma. As to the kind of experiment: Cell Growth Inhibition Assay (MTS, CellTiter 96 AQueous). The class given is cell-based. As to the method:
(§1) The two cell lines used, A375 malignant melanoma and A-549 lung carcinoma, were purchased from American Type Culture Collection. These cells were cultured at 37° C. in a humidified atmosphere of 5% CO2 in Dulbecco's Modified Eagle Medium (DMEM) supplemented with 10% fetal bovine serum (FBS), 0.1% glutamine and 0.1% penicillin-streptomycin. DMEM, FBS, glutamine and penicillin-streptomycin were purchased from Life Technologies (Grand Island, N.Y.).
(§2) Exponentially growing cells were seeded at ˜3000 (50 μl) cells per well in 96-well flat-bottomed microtiter plates and then incubated at 37° C. in a humidified atmosphere of 5% CO2/95% air for 24 hr. An analogue was dissolved in dimethyl sulfoxide to give a concentration of 0.6 mg/ml, which was further diluted with the culture medium containing 10% fetal bovine serum. Nine three-fold dilutions were prepared with the maximum concentration being 1/300 of the original DMSO solution (i.e. 2000 ng/ml). This procedure was repeated for each analogue. Fifty microliters of the obtained dilutions were each transferred into the well of the above described culture plate. The cell culture was then placed back into the incubator at 37° C. under the 5% CO2 atmosphere for 72 hr. Cell proliferation was quantified by using the CellTiter 96 AQueous Assay (Promega). In this assay a mixture solution (20 μl) of MTS [Owen's reagent: 3-(4,5-dimethylthiazol-2-yl)-5-(3-carbomethoxyphenyl)-2-(4-sulfophenyl)-2H-tetrazolium inner salt] and phenazine methosulfate (PMS) was added to each well. The resulting mixtures were further incubated for 2.5 hr. The absorbance was measured with a microplate reader at a test wavelength of 540 nm and a reference wavelength of 655 nm to serve as an index of the number of viable cells. The inhibitory ratio of the test compound was calculated according to the following formula: inhibition ratio (%)=100×(C−T)/C, where T is an absorbance of the well containing a test compound and C is an absorbance of the well containing no test compound. The IC50 was calculated by the least squares method.

The subject of experiment [2] is A375 malignant melanoma. Described as above. It counts as cell-based. The protocol:
as §1, §2

Where [3] appears, read: Homo sapiens, Table 1, A549 cells, 72 hr with compound, MTS readout, read-out: IC50, nM A549.
Where [4] appears, read: Homo sapiens, A-375, Table 1, A375 cells, 72 hr with compound, MTS readout, read-out: IC50, nM A375.
[5] abbreviates: Homo sapiens, A549, 72 h, read-out: IC50, nM A549.
The mark [6] stands for this setting: Homo sapiens, A-375, 72 h, read-out: IC50, nM A375.
Where [7] appears, read: Homo sapiens, Table 2, A549 cells, 72 hr with compound, MTS readout, read-out: IC50 (nM) Cell line A549-Lung.
Setting [8] is: Homo sapiens, A-375, Table 2, A375 cells, 72 hr with compound, MTS readout, read-out: IC50 (nM) Cell line A375-Melanoma.

Like-named read-outs stand apart in the source and are kept apart here.

Consider `CC(=O)C(N)=O`, for which the IC50 (in general, the concentration needed to halve the response being measured) came to 160 nM in experiment [1] (setting [3]) and 4.5 nM in experiment [2] (setting [4]).
For `NCc1ccccc1` the same measures were 1100 nM and 330 nM.
For `NCc1ccccn1` the same measures were 700 nM and 260 nM.
For `NC(=O)c1ccco1` the same measures were 290 nM and 13 nM.
As for `NC(=O)Cc1ccccc1`, the half-maximal inhibitory concentration (IC50) came out at 1200 nM in experiment [1] (setting [5]) and 34 nM in experiment [2] (setting [6]).
With `NC(=O)C(=O)Cc1ccccc1`, the IC50 worked out at 39 nM in experiment [1] (setting [3]) and 2.4 nM in experiment [2] (setting [4]).
As to `NC(=O)OCc1ccccc1`, the figures for the IC50 in experiment [1] (setting [5]) and in experiment [2] (setting [6]) were 50 nM and 3.9 nM, respectively.
The like results for `COc1ccc(OC(N)=O)cc1` were, in that order, 96 nM and 3.4 nM.
With `NC(=O)Nc1ccccc1`, the half-inhibitory concentration (IC50) in experiment [1] (setting [3]) amounted to 890 nM; in experiment [2] (setting [4]), 37 nM.
For `Cc1ccc(S(N)(=O)=O)cc1`, the IC50 in experiment [1] (setting [3]) was found to be 860 nM; in experiment [2] (setting [4]), 81 nM.
The like results for `NC(=O)c1ncccc1O` were, in that order, 11.3 nM and 1.2 nM.
The like results for `Cc1ccc(C(N)=O)c(O)c1` were, in that order, 6.5 nM and 1.2 nM.
For `COc1cccc(C(N)=O)c1` the same measures were 99 nM and 4.1 nM.
Turning to `NC(=O)c1c(F)cccc1F`, the values for the concentration for half-maximal inhibition (IC50) in experiment [1] (setting [3]) and in experiment [2] (setting [4]) were 395 nM and 12 nM, respectively.
For `COc1cc(C(N)=O)cc(OC)c1OC` the same measures were 390 nM and 14 nM.
The like results for `NC(=O)c1c(F)c(F)c(F)c(F)c1F` were, in that order, 100 nM and 8.5 nM.
For `NC(=O)c1ccccn1` the same measures were 40 nM and 3.3 nM.
On to `NC(=O)c1cnccn1`, for which the IC50 in experiment [1] (setting [3]) worked out at 100 nM; in experiment [2] (setting [4]), 4.4 nM.
For `NC(=O)c1cc2ccccc2[nH]1` the same measures were 31 nM and 2.7 nM.
For `NC(=O)c1c[nH]c2ccccc12` the same measures were 1200 nM and 76 nM.
For `NC(=O)c1cccc2[nH]ccc12` the same measures were 1100 nM and 85 nM.
In the case of `NC(=O)c1cc2cc(F)ccc2[nH]1`, the IC50 in experiment [1] (setting [3]) turned out to be 26 nM; in experiment [2] (setting [4]), 2.5 nM.
In the case of `NC(=O)C(=O)c1c[nH]c2ccccc12`, the IC50 was determined as 110 nM in experiment [1] (setting [5]) and 9.6 nM in experiment [2] (setting [6]).
`NC(=O)[C@H](Cc1c[nH]c2ccccc12)NC(=O)OCc1ccccc1`: the IC50 in experiment [1] (setting [3]) is 1100 nM; in experiment [2] (setting [4]), 96 nM.
For the compound `NC(=O)[C@@H](N)Cc1c[nH]c2ccccc12`, the figures for the half-inhibitory concentration (IC50) in experiment [1] (setting [3]) and in experiment [2] (setting [4]) were greater than 1400 nM and 310 nM, respectively.
On to `O=C1NC(=O)c2ccccc21`, for which the IC50 in experiment [1] (setting [3]) was 9.2 nM; in experiment [2] (setting [4]) it was 1.7 nM.
In the case of `O=C1NC(=O)c2ncccc21`, the half-maximal inhibitory concentration (IC50) in experiment [1] (setting [3]) and in experiment [2] (setting [4]) was greater than 510 nM throughout.
As for `NC(=O)/C=C/c1ccccc1`, the 50% inhibitory concentration (IC50) amounted to 44 nM in experiment [1] (setting [3]) and 2.9 nM in experiment [2] (setting [4]).
For `NC(=O)c1cccc2ccccc12` the same measures were 390 nM and 43 nM.
For `NC(=O)c1nccc2ccccc12`, the results for the half-maximal inhibitory concentration (IC50) in experiment [1] (setting [3]) and in experiment [2] (setting [4]) were 32 nM and 2.5 nM, respectively.
The like results for `NC(=O)c1c(O)ccc2ccccc12` were, in that order, 320 nM and 23 nM.
Consider `NC(=O)c1ncc(Br)c2ccccc12`, for which the figures for the IC50 in experiment [1] (setting [3]) and in experiment [2] (setting [4]) were 25 nM and 9.2 nM, respectively.
As for `Cc1ccc2ccc(C(N)=O)nc2c1`, the figures for the IC50 in experiment [1] (setting [3]) and in experiment [2] (setting [4]) were 4.6 nM and 1.4 nM, respectively.
The like results for `NC(=O)c1cc(O)c2ccc(Cl)cc2n1` were, in that order, 42 nM and 7.5 nM.
Turning to `NC(=O)c1cc(O)c2cc(Cl)ccc2n1`, the results for the 50% inhibitory concentration (IC50) in experiment [1] (setting [3]) and in experiment [2] (setting [4]) were 74 nM and 13 nM, respectively.
The like results for `NC(=O)c1cnc2ccccc2n1` were, in that order, 4.7 nM and 1.2 nM.
For `NC(=O)[C@@H]1Cc2ccccc2CN1` the same measures were 200 nM and 8.3 nM.
Take `NC(=O)C1NCCc2ccccc21` (stereo not drawn): in experiment [2] (setting [4]), the concentration for half-maximal inhibition (IC50) was found to be 3440 nM.
`COc1c(C)c(OC)c2c(c1O)[C@@H]1[C@@H]3Cc4c(OC)c(C)c(OC)c(O)c4[C@H](CNC(=O)OCC4c5ccccc5-c5ccccc54)N3[C@@H](C#N)C(C2)N1C`: the 50% inhibitory concentration (IC50) in experiment [1] (setting [7]) turned out to be 176 nM; in experiment [2] (setting [8]), 35 nM.
The like results for `CCCCC[C@H]1c2c(O)c(OC)c(C)c(OC)c2C[C@H]2[C@H]3c4c(O)c(OC)c(C)c(OC)c4C[C@@H]([C@H](C#N)N12)N3C` were, in that order, 1400 nM and 116 nM.
For `COc1c(C)c(OC)c2c(c1O)[C@@H]1[C@@H]3Cc4c(OC)c(C)c(OC)c(O)c4[C@H](CNC(=O)c4ccc5cc(OCCCCN)ccc5n4)N3[C@@H](C#N)[C@H](C2)N1C` the same measures were 118 nM and 29 nM.
In the case of `COc1c(C)c(OC)c2c(c1O)[C@@H]1[C@@H]3Cc4c(OC)c(C)c(OC)c(O)c4[C@H](CNC(=O)c4ccc5cc(OCCCCNC(=O)CCCCCNC(=O)CCCCCNC(=O)CCCC[C@@H]6SC[C@@H]7NC(=O)N[C@@H]76)ccc5n4)N3[C@@H](C#N)[C@H](C2)N1C` [Biotinylated derivative, Biotinylated Quinalascidin Analog 1], the IC50 in experiment [1] (Homo sapiens, A549, 72 h, read-out: IC50 (nM) Cell line A549-Lung) stood at 990 nM; in experiment [2] (Homo sapiens, A-375, 72 h, read-out: IC50 (nM) Cell line A375-Melanoma), 210 nM.
For the compound `COc1c(C)c(OC)c2c(c1O)[C@@H]1[C@@H]3Cc4c(OC)c(C)c(OC)c(O)c4[C@H](CN(Cc4ccccn4)Cc4ccccn4)N3[C@@H](C#N)[C@H](C2)N1C` [N-(Pyr)2, bis-2-Pyridyl Derivative], the half-maximal inhibitory concentration (IC50) in experiment [1] (setting [3]) and in experiment [2] (setting [4]) was greater than 1400 nM each time.
Take `COC1=C(C)C(=O)C2=C(C1=O)[C@@H]1[C@@H]3CC4=C(C(=O)C(OC)=C(C)C4=O)[C@H](CNC(=O)C(C)=O)N3[C@@H](C#N)[C@H](C2)N1C` [Saframycin A, (−)-Saframycin A, reference compound]: the half-maximal inhibitory concentration (IC50) in experiment [1] (Table 1, A549 cells, 72 hr with compound, MTS readout, read-out: IC50, nM A549) turned out to be 133 nM; in experiment [2] (Table 1, A375 cells, 72 hr with compound, MTS readout, read-out: IC50, nM A375) it was 5.3 nM.
Turning to `COc1c(C)c(OC)c2c(c1O)[C@@H]1[C@@H]3Cc4c(OC)c(C)c(OC)c(O)c4[C@H](CNC(=O)c4ccccc4F)N3[C@@H](C#N)[C@H](C2)N1C` [drawing 136 R = F, 2-Fluorobenzamide derivative], the half-inhibitory concentration (IC50) came out at 37 nM in experiment [1] (setting [3]) and 2.5 nM in experiment [2] (setting [4]).
The like results for `COc1c(C)c(OC)c2c(c1O)[C@@H]1[C@@H]3Cc4c(OC)c(C)c(OC)c(O)c4[C@H](CNC(=O)c4ccccc4)N3[C@@H](C#N)[C@H](C2)N1C` [drawing 136 R = H, Benzamide derivative] were, in that order, 91 nM and 4.1 nM.
For `COc1c(C)c(OC)c2c(c1O)[C@@H]1[C@@H]3Cc4c(OC)c(C)c(OC)c(O)c4[C@H](CNC(=O)c4ccccc4-c4ccccc4)N3[C@@H](C#N)[C@H](C2)N1C` [drawing 136 R = Phenyl, Biphenyl-2-carboxylic acid amide derivative] the same measures were 330 nM and 34 nM.
The like results for `COc1c(C)c(OC)c2c(c1O)[C@@H]1[C@@H]3Cc4c(OC)c(C)c(OC)c(O)c4[C@H](CNC(=O)c4ccc5ccccc5n4)N3[C@@H](C#N)[C@H](C2)N1C` [drawing 160 R = H (11), Quinoline-2-carboxylic acid amide derivative] were, in that order, 4.4 nM and 1.3 nM.
`COc1c(C)c(OC)c2c(c1O)[C@@H]1[C@@H]3Cc4c(OC)c(C)c(OC)c(O)c4[C@H](CNC(=O)c4ccc5cc(Cl)ccc5n4)N3[C@@H](C#N)[C@H](C2)N1C` [drawing 162 R = Cl (14), 6-Chloroquinoline-2-carboxylic acid amide derivative]: the results for the IC50 in experiment [1] (setting [3]) and in experiment [2] (setting [4]) were 4.1 nM and 1.5 nM, respectively.
Consider `COc1c(C)c(OC)c2c(c1O)[C@@H]1[C@@H]3Cc4c(OC)c(C)c(OC)c(O)c4[C@H](CNC(=O)c4ccc5ccccc5n4)N3C[C@H](C2)N1C` [drawing 172 X = H, Reduced quinalascidin analog], for which the IC50 in experiment [1] (Homo sapiens, Table 3, A549 cells, 72 hr with compound, MTS readout, read-out: IC50 (nM) Cell line A549-Lung) was greater than 9000 nM; in experiment [2] (Homo sapiens, A-375, Table 3, A375 cells, 72 hr with compound, MTS readout, read-out: IC50 (nM) Cell line A375-Melanoma), greater than 9000 nM.
